Assays:
purple nutsedge = assay: Test B pre/postemergence purple nutsedge; format: in vivo, Cyperus rotundus
Outline: (§1)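 Test chemicals in a non-phytotoxic solvent mixture with surfactant were sprayed preemergence onto planted seeds and postemergence onto plants 2 to 18 cm tall (1- to 4-leaf stage). After twelve to sixteen days in a greenhouse, injury was visually rated against untreated controls from 0 (no effect) to 10 (complete control).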

morningglory = assay: Test B pre/postemergence morningglory; format: in vivo, Ipomoea hederacea
Outline: as §1

wheat = assay: Test B pre/postemergence wheat; format: in vivo, Triticum aestivum
Outline: as §1

corn = assay: Test B pre/postemergence corn; format: in vivo, Zea mays
Outline: as §1

surinam grass = assay: Test B pre/postemergence surinam grass; format: in vivo, Brachiaria decumbens
Outline: as §1

blackgrass = assay: Test B pre/postemergence blackgrass; format: in vivo, Alopecurus myosuroides
Outline: as §1

pigweed = assay: Test B pre/postemergence pigweed; format: in vivo, Amaranthus retroflexus
Outline: as §1

velvetleaf = assay: Test B pre/postemergence velvetleaf; format: in vivo, Abutilon theophrasti
Outline: as §1

crabgrass = assay: Test B pre/postemergence crabgrass; format: in vivo, Digitaria sanguinalis
Outline: as §1

sugar beet = assay: Test B pre/postemergence sugar beet; format: in vivo, Beta vulgaris
Outline: as §1

giant foxtail = assay: Test B pre/postemergence giant foxtail; format: in vivo, Setaria faberii
Outline: as §1

cocklebur = assay: Test B pre/postemergence cocklebur; format: in vivo, Xanthium strumarium
Outline: as §1

rape = assay: Test B pre/postemergence rape; format: in vivo, Brassica napus
Outline: as §1

bedstraw = assay: Test B pre/postemergence bedstraw; format: in vivo, Galium aparine; settings: Preemergence; for Bedstraw plant response rating: scale 0 to 10, 0 is no effect, 10 is complete control
Outline: as §1

soybean = assay: Test B pre/postemergence soybean; format: in vivo, Glycine max
Outline: as §1

wild oat = assay: Test B pre/postemergence wild oat; format: in vivo, Avena fatua
Outline: as §1

[1] = Postemergence, Rate 62 g/ha, scale of 0 to 10, 0 is no effect, 10 is complete control
[2] = Postemergence, Rate 125 g/ha, scale 0 to 10, 0 is no effect, 10 is complete control
[3] = Postemergence, Rate 500 g/ha, scale 0 to 10, 0 is no effect, 10 is complete control
[4] = Preemergence, Rate 62 g/ha, scale of 0 to 10 where 0 is no effect and 10 is complete control
[5] = Preemergence, Rate 125 g/ha, scale 0 to 10, 0 is no effect, 10 is complete control
[6] = Preemergence, Rate 500 g/ha, scale of 0 to 10 where 0 is no effect and 10 is complete control
[7] = Rate 250 g/ha, Postemergence, scale of 0 to 10 where 0 is no effect and 10 is complete control

SMILES: CC(C)N(C(=O)n1oc(=O)n(COCc2ccccc2)c1=O)c1ccc(F)cc1F [Compound 520]
- Nutsedge plant response rating (purple nutsedge; [1]): 0
- Nutsedge plant response rating (purple nutsedge; [2]): 0
- Plant response rating, Nutsedge (purple nutsedge; [3]): 0
- Plant response rating, Nutsedge (purple nutsedge; [4]): 0
- Nutsedge plant response rating (purple nutsedge; [5]): 0
- Nutsedge plant response rating (0 to 10 scale) (purple nutsedge; Preemergence, Rate 250 g/ha): 0
- Nutsedge plant response rating (purple nutsedge; [6]): 0
- Plant response rating, Nutsedge (purple nutsedge; [7]): 0
- Morningglory plant response rating (morningglory; [1]): 3
- Morningglory plant response rating (morningglory; [2]): 4
- Plant response rating, Morningglory (morningglory; [3]): 10
- Plant response rating, Morningglory (morningglory; [4]): 0
- Morningglory plant response rating (morningglory; [5]): 0
- Morningglory plant response rating (0 to 10 scale) (morningglory; Preemergence, Rate 250 g/ha): 0
- Morningglory plant response rating (morningglory; [6]): 0
- Plant response rating, Morningglory (morningglory; [7]): 4
- Wheat plant response rating (wheat; [1]): 0
- Wheat plant response rating (wheat; [2]): 0
- Plant response rating, Wheat (wheat; [3]): 0
- Plant response rating, Wheat (wheat; [4]): 0
- Wheat plant response rating (wheat; [5]): 0
- Wheat plant response rating (0 to 10 scale) (wheat; Preemergence, Rate 250 g/ha): 0
- Wheat plant response rating (wheat; [6]): 0
- Plant response rating, Wheat (wheat; [7]): 0
- Corn plant response rating (corn; [1]): 0
- Corn plant response rating (corn; [2]): 0
- Plant response rating, Corn (corn; [3]): 0
- Plant response rating, Corn (corn; [4]): 0
- Corn plant response rating (corn; [5]): 0
- Corn plant response rating (0 to 10 scale) (corn; Preemergence, Rate 250 g/ha): 0
- Corn plant response rating (corn; [6]): 0
- Plant response rating, Corn (corn; [7]): 0
- B. signalgrass plant response rating (surinam grass; [1]): 0
- B. signalgrass plant response rating (surinam grass; [2]): 0
- Plant response rating, B. signalgrass (surinam grass; [3]): 2
- Plant response rating, B. signalgrass (surinam grass; [4]): 0
- B. signalgrass plant response rating (surinam grass; [5]): 0
- B. signalgrass plant response rating (0 to 10 scale, 0 is no effect, 10 is complete control) (surinam grass; Preemergence, Rate 250 g/ha): 0
- B. signalgrass plant response rating (surinam grass; Preemergence, Rate 500 g/ha, scale 0 to 10, 0 is no effect, 10 is complete control): 0
- Plant response rating, B. signalgrass (surinam grass; [7]): 0
- Blackgrass plant response rating (blackgrass; [1]): 0
- Blackgrass plant response rating (blackgrass; [2]): 0
- Plant response rating, Blackgrass (blackgrass; [3]): 6
- Plant response rating, Blackgrass (blackgrass; [4]): 0
- Blackgrass plant response rating (blackgrass; [5]): 0
- Blackgrass plant response rating (0 to 10 scale) (blackgrass; Preemergence, Rate 250 g/ha): 0
- Blackgrass plant response rating (blackgrass; [6]): 0
- Plant response rating, Blackgrass (blackgrass; [7]): 0
- Redroot pigweed plant response rating (pigweed; [1]): 0
- Redroot pigweed plant response rating (pigweed; [2]): 3
- Plant response rating, Redroot pigweed (pigweed; [3]): 0
- Plant response rating, Redroot pigweed (pigweed; [4]): 0
- Redroot pigweed plant response rating (pigweed; [5]): 0
- Redroot pigweed plant response rating (0 to 10 scale) (pigweed; Preemergence, Rate 250 g/ha): 0
- Redroot pigweed plant response rating (pigweed; [6]): 0
- Velvetleaf plant response rating (velvetleaf; [1]): 3
- Velvetleaf plant response rating (velvetleaf; [2]): 4
- Plant response rating, Velvetleaf (velvetleaf; [3]): 6
- Plant response rating, Velvetleaf (velvetleaf; [4]): 0
- Velvetleaf plant response rating (velvetleaf; [5]): 0
- Velvetleaf plant response rating (0 to 10 scale) (velvetleaf; Preemergence, Rate 250 g/ha): 0
- Velvetleaf plant response rating (velvetleaf; [6]): 0
- Plant response rating, Velvetleaf (velvetleaf; [7]): 4
- Crabgrass plant response rating (crabgrass; [1]): 2
- Crabgrass plant response rating (crabgrass; [2]): 3
- Plant response rating, Crabgrass (crabgrass; [3]): 9
- Plant response rating, Crabgrass (crabgrass; [4]): 9
- Crabgrass plant response rating (crabgrass; [5]): 9
- Crabgrass plant response rating (0 to 10 scale) (crabgrass; Preemergence, Rate 250 g/ha): 10
- Crabgrass plant response rating (crabgrass; [6]): 10
- Plant response rating, Crabgrass (crabgrass; [7]): 4
- Sugarbeets plant response rating (sugar beet; [1]): 0
- Sugarbeets plant response rating (sugar beet; [2]): 0
- Plant response rating, Sugarbeets (sugar beet; [3]): 2
- Plant response rating, Sugarbeets (sugar beet; [4]): 0
- Sugarbeets plant response rating (sugar beet; [5]): 0
- Sugarbeets plant response rating (0 to 10 scale) (sugar beet; Preemergence, Rate 250 g/ha): 0
- Sugarbeets plant response rating (sugar beet; [6]): 0
- Plant response rating, Sugarbeets (sugar beet; [7]): 0
- Giant foxtail plant response rating (giant foxtail; [1]): 2
- Giant foxtail plant response rating (giant foxtail; [2]): 4
- Plant response rating, Giant foxtail (giant foxtail; [3]): 9
- Plant response rating, Giant foxtail (giant foxtail; [4]): 9
- Giant foxtail plant response rating (giant foxtail; [5]): 10
- Giant foxtail plant response rating (0 to 10 scale) (giant foxtail; Preemergence, Rate 250 g/ha): 10
- Giant foxtail plant response rating (giant foxtail; [6]): 10
- Plant response rating, Giant foxtail (giant foxtail; [7]): 4
- Cocklebur plant response rating (cocklebur; [1]): 0
- Cocklebur plant response rating (cocklebur; [2]): 0
- Plant response rating, Cocklebur (cocklebur; [3]): 0
- Plant response rating, Cocklebur (cocklebur; [4]): 0
- Cocklebur plant response rating (cocklebur; [5]): 0
- Cocklebur plant response rating (0 to 10 scale) (cocklebur; Preemergence, Rate 250 g/ha): 0
- Cocklebur plant response rating (cocklebur; [6]): 0
- Plant response rating, Cocklebur (cocklebur; [7]): 0
- Rape plant response rating (rape; [1]): 0
- Rape plant response rating (rape; [2]): 0
- Plant response rating, Rape (rape; [3]): 9
- Plant response rating, Rape (rape; [4]): 0
- Rape plant response rating (rape; [5]): 0
- Rape plant response rating (0 to 10 scale) (rape; Preemergence, Rate 250 g/ha): 0
- Rape plant response rating (rape; [6]): 0
- Plant response rating, Rape (rape; [7]): 0
- Plant response rating, Bedstraw (bedstraw; Rate 62 g/ha, scale of 0 to 10 where 0 is no effect and 10 is complete control): 0
- Bedstraw plant response rating (bedstraw; Rate 125 g/ha): 0
- Bedstraw plant response rating (0 to 10 scale) (bedstraw; Rate 250 g/ha): 0
- Bedstraw plant response rating (bedstraw; Rate 500 g/ha): 0
- Soybean plant response rating (soybean; [1]): 2
- Soybean plant response rating (soybean; [2]): 4
- Plant response rating, Soybean (soybean; [3]): 4
- Plant response rating, Soybean (soybean; [4]): 0
- Soybean plant response rating (soybean; [5]): 0
- Soybean plant response rating (0 to 10 scale) (soybean; Preemergence, Rate 250 g/ha): 0
- Soybean plant response rating (soybean; [6]): 0
- Plant response rating, Soybean (soybean; [7]): 4
- Wild oats plant response rating (wild oat; [1]): 0
- Wild oats plant response rating (wild oat; [2]): 0
- Plant response rating, Wild oats (wild oat; [3]): 0
- Plant response rating, Wild oats (wild oat; [4]): 0
- Wild oats plant response rating (wild oat; [5]): 0
- Wild oats plant response rating (0 to 10 scale) (wild oat; Preemergence, Rate 250 g/ha): 0
- Wild oats plant response rating (wild oat; [6]): 0
- Plant response rating, Wild oats (wild oat; [7]): 0

Reference: patent US6737383B1, “Herbicidal oxadiazolidines” (priority 1999, dated 2004)
